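Exposure lasted 48 hours, with cells grown in 96-well plates and compounds tested at five concentrations. At the GI50, growth is halved.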 Calls of active or inactive are those of the source. No stated cut-off is given here; in the data, active = GI50 up to about 1.1 µM and inactive = higher.
Experiments:
Assay in all cases: growth of human tumour cells (NCI), 48 h
NCI-H522 = test system: NCI-H522
OVCAR-3 = test system: OVCAR-3
SK-OV-3 = test system: SK-OV-3
SN12C = test system: SN12C
LOX IMVI = test system: LOX IMVI
HL-60 = test system: HL-60
K562 = test system: K562
SW-620 = test system: SW-620
U-251 = test system: U-251
CCRF-CEM = test system: CCRF-CEM
ACHN = test system: ACHN
A549 = test system: A549
SNB-75 = test system: SNB-75
KM-20L2 = test system: KM-20L2
HOP-62 = test system: HOP-62
SF-539 = test system: SF-539
A498 = test system: A498
MDA-MB-435 = test system: MDA-MB-435
T47D = test system: T47D
NCI/ADR-RES = test system: NCI/ADR-RES

Row | SMILES | GI50 (NCI-H522) | GI50 (OVCAR-3) | GI50 (SK-OV-3) | GI50 (SN12C) | GI50 (LOX IMVI) | GI50 (HL-60) | GI50 (K562) | GI50 (SW-620) | GI50 (U-251) | GI50 (CCRF-CEM) | GI50 (ACHN) | GI50 (A549) | GI50 (SNB-75) | GI50 (KM-20L2) | GI50 (HOP-62) | GI50 (SF-539) | GI50 (A498) | GI50 (MDA-MB-435) | GI50 (T47D) | GI50 (NCI/ADR-RES)
1 | CC(CCC(=O)O)c1ccc(Br)cc1 (configuration not stated) | > 100 µM (inactive) | > 100 µM (inactive) | > 100 µM (inactive) | > 100 µM (inactive) | > 100 µM (inactive) | > 100 µM (inactive) | > 100 µM (inactive) | > 100 µM (inactive) | > 100 µM (inactive) | > 100 µM (inactive) | > 100 µM (inactive) | > 100 µM (inactive) | > 100 µM (inactive) | > 100 µM (inactive) | > 100 µM (inactive) | – | – | – | – | –
2 | NCCCCNc1ccc2c(=O)[nH][nH]c(=O)c2c1 | > 100 µM (inactive) | > 100 µM (inactive) | > 100 µM (inactive) | > 100 µM (inactive) | > 100 µM (inactive) | > 100 µM (inactive) | > 100 µM (inactive) | > 100 µM (inactive) | > 100 µM (inactive) | > 100 µM (inactive) | > 100 µM (inactive) | > 100 µM (inactive) | > 100 µM (inactive) | > 100 µM (inactive) | > 100 µM (inactive) | > 100 µM (inactive) | > 100 µM (inactive) | – | – | –
3 | Cc1c(C(=O)/C=C/c2ccc([N+](=O)[O-])cc2)[n+]([O-])c2ccccc2[n+]1[O-] | 20.5 µM (inactive) | 95.7 µM (inactive) | > 100 µM (inactive) | > 100 µM (inactive) | 42.3 µM (inactive) | 0.923 µM (active) | 27 µM (inactive) | 67 µM (inactive) | 92.5 µM (inactive) | 20.9 µM (inactive) | > 100 µM (inactive) | > 100 µM (inactive) | 41.4 µM (inactive) | > 100 µM (inactive) | > 100 µM (inactive) | 49.1 µM (inactive) | > 100 µM (inactive) | – | – | –
4 | CCCCCCCCCCCOc1ccc(C(=O)C(=O)c2ccc(OCCCCCCCCCCC)c(OCCCCCCCCCCC)c2)cc1OCCCCCCCCCCC | > 100 µM (inactive) | > 100 µM (inactive) | > 100 µM (inactive) | > 100 µM (inactive) | > 100 µM (inactive) | > 100 µM (inactive) | > 100 µM (inactive) | > 100 µM (inactive) | > 100 µM (inactive) | > 100 µM (inactive) | > 100 µM (inactive) | > 100 µM (inactive) | 31.3 µM (inactive) | > 100 µM (inactive) | > 100 µM (inactive) | > 100 µM (inactive) | > 100 µM (inactive) | – | – | –
5 | C[C@]12Cc3conc3C(O)=C1CC[C@@H]1C2CC[C@@]2(C)C1CC[C@@H]2O (some centres not stated) | 2.95 µM (inactive) | 6.22 µM (inactive) | 31.3 µM (inactive) | 28.9 µM (inactive) | 4.5 µM (inactive) | 2.55 µM (inactive) | 3.66 µM (inactive) | 15.5 µM (inactive) | 20 µM (inactive) | 7.62 µM (inactive) | 23.3 µM (inactive) | 17.9 µM (inactive) | 9.77 µM (inactive) | 29.5 µM (inactive) | 50.4 µM (inactive) | 15.8 µM (inactive) | 9.12 µM (inactive) | – | – | –
6 | O=C1C=CC(=O)C2=C1[C@@H](O)C1CC=CC3C(=O)O[C@@H]2C31 (some centres not stated) | 15.5 µM (inactive) | 21 µM (inactive) | > 100 µM (inactive) | 20.7 µM (inactive) | 20.6 µM (inactive) | 18.2 µM (inactive) | 18.5 µM (inactive) | 22.4 µM (inactive) | > 77.8 µM (inactive) | 8.2 µM (inactive) | 36.5 µM (inactive) | > 52.7 µM (inactive) | 24.9 µM (inactive) | 23.5 µM (inactive) | > 100 µM (inactive) | > 43.9 µM (inactive) | > 100 µM (inactive) | – | – | –
7 | O=C(O)C12C3C4C1C1C2C3C1(Br)C41OCCO1 (configuration not stated) | > 100 µM (inactive) | > 100 µM (inactive) | > 100 µM (inactive) | – | > 100 µM (inactive) | > 100 µM (inactive) | > 100 µM (inactive) | > 100 µM (inactive) | > 100 µM (inactive) | > 100 µM (inactive) | > 100 µM (inactive) | > 100 µM (inactive) | > 100 µM (inactive) | > 100 µM (inactive) | > 100 µM (inactive) | > 100 µM (inactive) | > 100 µM (inactive) | – | – | –
8 | CCN(CC)c1oc(N(CC)CC)c(C(=O)Nc2ccccn2)c(=O)c1C(C)=O | > 100 µM (inactive) | > 100 µM (inactive) | > 100 µM (inactive) | > 100 µM (inactive) | – | – | > 100 µM (inactive) | > 100 µM (inactive) | > 100 µM (inactive) | > 100 µM (inactive) | > 100 µM (inactive) | > 100 µM (inactive) | > 100 µM (inactive) | > 10 µM (inactive) | > 100 µM (inactive) | > 100 µM (inactive) | > 100 µM (inactive) | – | – | –
9 | COC(=O)[C@@]1(C)/C(=N/NS(=O)(=O)c2ccc(C)cc2)CCC[C@@H]1C | 41.8 µM (inactive) | > 100 µM (inactive) | > 100 µM (inactive) | > 100 µM (inactive) | 14.3 µM (inactive) | 6.37 µM (inactive) | 74.3 µM (inactive) | – | > 100 µM (inactive) | 27.8 µM (inactive) | > 100 µM (inactive) | > 100 µM (inactive) | > 100 µM (inactive) | > 100 µM (inactive) | > 100 µM (inactive) | 88.3 µM (inactive) | > 100 µM (inactive) | – | – | –
10 | COc1cc(OC)c(/C=C2\N=C(C)N(Nc3nnc(NN4C(=O)/C(=C/c5c(OC)cc(OC)cc5OC)N=C4C)c4ccccc34)C2=O)c(OC)c1 | > 100 µM (inactive) | – | – | > 100 µM (inactive) | > 100 µM (inactive) | > 100 µM (inactive) | > 100 µM (inactive) | > 100 µM (inactive) | > 100 µM (inactive) | > 100 µM (inactive) | > 100 µM (inactive) | > 100 µM (inactive) | 42.3 µM (inactive) | > 100 µM (inactive) | > 100 µM (inactive) | > 100 µM (inactive) | > 100 µM (inactive) | – | – | –
11 | Cc1c2cc[n+](C)cc2c(C)c2c1[nH]c1ccc(Oc3ccccc3)cc12 | – | 1.14 µM (inactive) | 1.14 µM (inactive) | 0.303 µM (active) | 1.61 µM (inactive) | – | 0.665 µM (active) | 0.537 µM (active) | 0.236 µM (active) | 1.38 µM (inactive) | 2.48 µM (inactive) | 0.272 µM (active) | 0.441 µM (active) | 0.927 µM (active) | 0.518 µM (active) | 1.26 µM (inactive) | – | – | – | –
12 | COc1ccc2nc(NC(=O)C(=O)C(C#N)c3ccc([N+](=O)[O-])cc3)sc2c1 (configuration not stated) | 55.5 µM (inactive) | > 100 µM (inactive) | > 100 µM (inactive) | > 100 µM (inactive) | > 100 µM (inactive) | – | 72.1 µM (inactive) | > 100 µM (inactive) | > 100 µM (inactive) | – | > 100 µM (inactive) | > 100 µM (inactive) | > 100 µM (inactive) | > 100 µM (inactive) | > 100 µM (inactive) | > 100 µM (inactive) | – | – | – | –
13 | NC(=S)N1N=C2c3ccccc3CC[C@H]2[C@@H]1c1cccs1 | 16.8 µM (inactive) | 36.2 µM (inactive) | 37.7 µM (inactive) | 39.3 µM (inactive) | 66.5 µM (inactive) | 16.1 µM (inactive) | 7.69 µM (inactive) | 38.7 µM (inactive) | 35.3 µM (inactive) | 18.8 µM (inactive) | 49.2 µM (inactive) | 30.1 µM (inactive) | – | 23.9 µM (inactive) | 33.3 µM (inactive) | 43.2 µM (inactive) | 60.3 µM (inactive) | – | – | –
14 | CCOC(C[C@H](O[Si](C)(C)C(C)(C)C)[C@H]1COC(=S)S1)OCC | 23.3 µM (inactive) | 59.4 µM (inactive) | – | 55.8 µM (inactive) | 52.6 µM (inactive) | 29 µM (inactive) | 41.3 µM (inactive) | 62.7 µM (inactive) | 40.7 µM (inactive) | 34.9 µM (inactive) | 48.5 µM (inactive) | 70.5 µM (inactive) | – | 41.4 µM (inactive) | 43.6 µM (inactive) | 33.6 µM (inactive) | – | – | – | –
15 | CCc1nc(N)nc(C(=O)NCCNC(=O)c2nc(N)nc(CC)c2C)c1C | – | > 100 µM (inactive) | – | > 100 µM (inactive) | > 100 µM (inactive) | > 100 µM (inactive) | > 100 µM (inactive) | > 100 µM (inactive) | > 100 µM (inactive) | – | > 100 µM (inactive) | > 100 µM (inactive) | > 100 µM (inactive) | > 100 µM (inactive) | > 100 µM (inactive) | > 100 µM (inactive) | > 100 µM (inactive) | – | – | –
16 | CCCc1nc(N)nc(C(=O)Nc2cccc(C(F)(F)F)c2)c1CC | – | > 100 µM (inactive) | – | > 100 µM (inactive) | > 100 µM (inactive) | > 100 µM (inactive) | > 100 µM (inactive) | > 100 µM (inactive) | > 100 µM (inactive) | – | > 100 µM (inactive) | > 100 µM (inactive) | > 100 µM (inactive) | > 100 µM (inactive) | > 100 µM (inactive) | > 100 µM (inactive) | > 100 µM (inactive) | – | – | –
17 | CCOP(=O)(OCC)C1=C(c2ccccc2)OC(N)=C(C#N)C1c1ccc(Cl)cc1 (configuration not stated) | 67.9 µM (inactive) | > 100 µM (inactive) | > 100 µM (inactive) | > 100 µM (inactive) | > 100 µM (inactive) | > 100 µM (inactive) | > 100 µM (inactive) | > 100 µM (inactive) | > 100 µM (inactive) | 30.1 µM (inactive) | > 100 µM (inactive) | > 100 µM (inactive) | > 100 µM (inactive) | – | > 100 µM (inactive) | 66.1 µM (inactive) | > 100 µM (inactive) | > 100 µM (inactive) | > 100 µM (inactive) | > 100 µM (inactive)
